In PubChem BioAssay AID504457 (Sanford-Burnham Center for Chemical Genomics, 2011):
The source made the active and inactive calls.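 The calls were made as follows: active = compounds with IC50 below 20 µM; inactive = the rest.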

The molecules below were run against Type-1 angiotensin II receptor (Homo sapiens) (UniProt P30556) (assay: AT1 receptor antagonists, angiotensin II-stimulated, SAR follow-up, selectivity assay for APJ receptor antagonist project, cell-based, CHO-K1 AGTR1, beta-arrestin, luminescence, set 5 (AID 504457)). Conditions: CHO-K1 AGTR1 PathHunter beta-arrestin.
Type-1 angiotensin II receptor (Homo sapiens), sequence (P30556 whole entry, looked up): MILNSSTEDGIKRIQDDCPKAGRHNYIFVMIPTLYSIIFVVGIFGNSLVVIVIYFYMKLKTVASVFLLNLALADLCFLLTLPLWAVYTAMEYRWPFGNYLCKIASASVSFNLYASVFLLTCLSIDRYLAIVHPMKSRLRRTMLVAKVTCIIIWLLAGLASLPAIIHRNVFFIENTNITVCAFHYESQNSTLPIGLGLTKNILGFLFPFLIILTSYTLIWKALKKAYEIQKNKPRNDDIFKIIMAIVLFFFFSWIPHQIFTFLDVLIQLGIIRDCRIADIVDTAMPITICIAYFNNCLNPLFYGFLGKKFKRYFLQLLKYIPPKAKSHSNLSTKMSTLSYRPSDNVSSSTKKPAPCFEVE

IC50, inactive:
O=C(Oc1coc(CSc2ncccn2)cc1=O)c1ccc(Br)cc1 > 79 µM
N#Cc1ccc(C(=O)Oc2coc(CSc3ncccn3)cc2=O)cc1 > 79 µM
C=CCOc1ccc(CSc2nc(C)cc(C)n2)cc1OC > 79 µM
COc1cc(CSc2nc(C)cc(C)n2)ccc1O > 79 µM
CC1(C)CC2(CC(c3ccc(F)cc3)c3ccc(O)cc3O2)NC(=S)N1 (centres undefined)
Cc1cc(C)nc(SCc2cc(=O)c(O)co2)n1 > 79 µM
C=CCOc1ccc(CSc2nccc(C)n2)cc1 > 79 µM
Cc1cc(C)nc(SCc2cc(=O)c(OC(=O)c3cc([N+](=O)[O-])ccc3Cl)co2)n1
COc1ccc(C2CC3(CC(C)(C)NC(=S)N3)Oc3cc(O)cc(C)c32)cc1 (centres undefined) > 79 µM
CC(=O)Oc1cc2c(cc1Cl)C(c1ccccc1Cl)CC1(CC(C)(C)NC(=S)N1)O2 (centres undefined) > 79 µM
Cc1ccccc1C1CC2(CC(C)(C)NC(=S)N2)Oc2cc(O)c(Cl)cc21 (centres undefined)
Cc1ccc(C(=O)Oc2coc(CSc3ncccn3)cc2=O)cc1[N+](=O)[O-] > 79 µM
C=CCOc1ccc(COc2ccccc2)cc1 > 79 µM
COc1ccccc1NC(=O)CN1C(=O)C(=O)c2ccccc21 > 79 µM
Cc1ccnc(SCc2cc(=O)c(OC(=O)c3ccccc3)co2)n1 > 79 µM
COc1ccc(C2CC3(CC(C)(C)NC(=S)N3)Oc3cc(OC(C)=O)cc(C)c32)cc1 (centres undefined) > 79 µM
Cc1ccnc(SCc2cc(=O)c(OC(=O)c3ccc([N+](=O)[O-])cc3)co2)n1 > 79 µM
Cc1ccnc(SCc2cc(=O)c(OC(=O)c3ccc(C#N)cc3)co2)n1 > 79 µM
O=c1cc(CSc2ncccn2)occ1O > 79 µM
